Earlier results, collected in PubChem BioAssay AID1259409 (Chemical Carcinogenesis Research Information System (CCRIS), 2018).

Test system: rodent chemically induced tumor inhibition, incidence and multiplicity
Assay: CCRIS tumor inhibitor studies
Details: Dose [Inhibitor]: 0, Route [Inhibitor]: ORAL, Species: RAT, Strain/Sex: F344/MALE

COc1cc(/C=C/C(=O)O[C@H]2CC[C@]34C[C@]35CC[C@]3(C)[C@@H]([C@H](C)CCC=C(C)C)CC[C@@]3(C)[C@@H]5CC[C@H]4C2(C)C)ccc1O
tumour outcome (control, treated, inhibition, significance) (Carcinogen: 2,2'-DIHYDROXY-DI-N-PROPYLNITROSAMINE, 53609-64-6, N-ETHYL-N-HYDROXYETHYLNITROSAMINE, 13147-25-6, 3,2'-DIMETHYL-4-AMINO-, Carcinogen: 2,2'-DIHYDROXY-DI-N-PROPYLNITROSAMINE, 53609-64-6, N-ETHYL-N-HYDROXYETHYLNITROSAMINE, 13147-25-6, 3,2'-DIMETHYL-4-AMINO-, 1% IN DIET FOR 32 WK BEGINNING 1 WK POST CARCINOGEN TREATMENT (STUDY DURATION: 36 WK), Target Tissue: Type of Lesion: LUNG: ADENOMA, Dose [Carcinogen]: 1000 MG/KG BW DHPN TWICE 1500 MG/KG BW EHEN TWICE, 75 MG/KG BW 3 TIMES ADMINISTERED OVER FIRST 3 WK, Promoter: NONE USED): 7/14 (50%), 11/13 (85%), -70%, not significant | tumour outcome (control, treated, inhibition, significance) (Carcinogen: 2,2'-DIHYDROXY-DI-N-PROPYLNITROSAMINE, 53609-64-6, N-ETHYL-N-HYDROXYETHYLNITROSAMINE, 13147-25-6, 3,2'-DIMETHYL-4-AMINO-, Carcinogen: 2,2'-DIHYDROXY-DI-N-PROPYLNITROSAMINE, 53609-64-6, N-ETHYL-N-HYDROXYETHYLNITROSAMINE, 13147-25-6, 3,2'-DIMETHYL-4-AMINO-, 1% IN DIET FOR 32 WK BEGINNING 1 WK POST CARCINOGEN TREATMENT (STUDY DURATION: 36 WK), Target Tissue: Type of Lesion: THYROID GLAND: ADENOMA, Dose [Carcinogen]: 1000 MG/KG BW DHPN TWICE, 1500 MG/KG BW EHEN TWICE 75 MG/KG BW 3 TIMES ADMINISTERED OVER FIRST 3 WK, Promoter: NONE USED): 3/14 (21%), 2/13 (15%), 29%, not significant | tumour outcome (control, treated, inhibition, significance) (Carcinogen: 2,2'-DIHYDROXY-DI-N-PROPYLNITROSAMINE, 53609-64-6, N-ETHYL-N-HYDROXYETHYLNITROSAMINE, 13147-25-6, 3,2'-DIMETHYL-4-AMINO-, Carcinogen: 2,2'-DIHYDROXY-DI-N-PROPYLNITROSAMINE, 53609-64-6, N-ETHYL-N-HYDROXYETHYLNITROSAMINE, 13147-25-6, 3,2'-DIMETHYL-4-AMINO-, 1% IN DIET FOR 32 WK BEGINNING 1 WK POST CARCINOGEN TREATMENT (STUDY DURATION: 36 WK), Target Tissue: Type of Lesion: THYROID GLAND: CARCINOMA, Dose [Carcinogen]: 1000 MG/KG BW DHPN TWICE, 1500 MG/KG BW EHEN TWICE, 75 MG/KG BW 3 TIMES ADMINISTERED OVER FIRST 3 WK, Promoter: NONE USED): 3/14 (21%), 1/13 (8%), 62%, not significant | tumour outcome (control, treated, inhibition, significance) (Carcinogen: 2,2'-DIHYDROXY-DI-N-PROPYLNITROSAMINE, 53609-64-6, N-ETHYL-N-HYDROXYETHYLNITROSAMINE, 13147-25-6, 3,2'-DIMETHYL-4-AMINO-, Carcinogen: 2,2'-DIHYDROXY-DI-N-PROPYLNITROSAMINE, 53609-64-6, N-ETHYL-N-HYDROXYETHYLNITROSAMINE, 13147-25-6, 3,2'-DIMETHYL-4-AMINO-, 1% IN DIET FOR 32 WK BEGINNING 1 WK POST CARCINOGEN TREATMENT (STUDY DURATION: 36 WK), Target Tissue: Type of Lesion: URINARY BLADDER: CARCINOMA, Dose [Carcinogen]: 1000 MG/KG BW DHPN TWICE, 1500 MG/KG BW EHEN TWICE, 75 MG/KG BW 3 TIMES ADMINISTERED OVER FIRST 3 WK, Promoter: NONE USED): 1/14 (7%), 2/13 (15%), -114%, not significant | outcome (Carcinogen: 2,2'-DIHYDROXY-DI-N-PROPYLNITROSAMINE, 53609-64-6, N-ETHYL-N-HYDROXYETHYLNITROSAMINE, 13147-25-6, 3,2'-DIMETHYL-4-AMINO-, Carcinogen: 2,2'-DIHYDROXY-DI-N-PROPYLNITROSAMINE, 53609-64-6, N-ETHYL-N-HYDROXYETHYLNITROSAMINE, 13147-25-6, 3,2'-DIMETHYL-4-AMINO-, 1% IN DIET FOR 32 WK BEGINNING 1 WK POST CARCINOGEN TREATMENT (STUDY DURATION: 36 WK), Target Tissue: Type of Lesion: URINARY BLADDER: PAPILLOMA, Dose [Carcinogen]: 1000 MG/KG BW DHPN TWICE, 1500 MG/KG BW EHEN TWICE, 75 MG/KG BW 3 TIMES ADMINISTERED OVER FIRST 3 WK, Promoter: NONE USED): 0/14 (0%), 3/13 (23%), -100%, not significant | tumour outcome (control, treated, inhibition, significance) (Carcinogen: 2,2'-DIHYDROXY-DI-N-PROPYLNITROSAMINE, 53609-64-6, N-ETHYL-N-HYDROXYETHYLNITROSAMINE, 13147-25-6, 3,2'-DIMETHYL-4-AMINO-, Carcinogen: 2,2'-DIHYDROXY-DI-N-PROPYLNITROSAMINE, 53609-64-6, N-ETHYL-N-HYDROXYETHYLNITROSAMINE, 13147-25-6, 3,2'-DIMETHYL-4-AMINO-, 1% IN THE DIET FOR 32 WK BEGINNING 1 WK POST CARCINOGEN TREATMENT (STUDY DURATION: 36 WK), Target Tissue: Type of Lesion: LARGE INTESTINE: ADENOMA, Dose [Carcinogen]: 1000 MG/KG BW DHPN TWICE, 1500 MG/KG BW EHEN TWICE, 75 MG/KG BW 3 TIMES ADMINISTERED OVER FIRST 3 WK, Promoter: NONE USED): 7/14 (50%), 5/13 (38%), 24%, not significant | tumour outcome (control, treated, inhibition, significance) (Carcinogen: 2,2'-HYDROXY-DI-N-PROPYLNITROSAMINE, 53609-64-6, N-ETHYL-N-HYDROXYETHYL- NITROSAMINE, 13147-25-6, 3,2'-DIMETHYL-4-AM, Carcinogen: 2,2'-HYDROXY-DI-N-PROPYLNITROSAMINE, 53609-64-6, N-ETHYL-N-HYDROXYETHYL- NITROSAMINE, 13147-25-6, 3,2'-DIMETHYL-4-AM, 1% IN DIET BEGINNING 1 WK POST LAST CARCINOGEN DOSE AND CONTINUING FOR 32 WK (STUDY DURATION: 36 WK), Target Tissue: Type of Lesion: URINARY BLADDER: CARCINOMA, Dose [Carcinogen]: 1000 MG/KG IP DHPN 2X, 1500 MG/KG GAV EHEN 2X AND 75 MG/KG SC DMAB 3X GIVEN OVER THE INITIAL 3 WK PERIOD AT 3-4 D INTERV, Promoter: NONE USED): 1/14 (7%), 2/13 (15%), -114%, not calculated | tumour outcome (control, treated, inhibition, significance) (Carcinogen: 3,2'-DIMETHYL-4-AMINOBIPHENYL, 13394-86-0, 2% IN BASAL DIET BEGINNING POST CARCINOGEN TREATMENT AND CONTINUING FOR 40 WK (STUDY DURATION: 60 WK), Target Tissue: Type of Lesion: PANCREAS: ACINAR CELL NODULE, Dose [Carcinogen]: 50 MG/KG 1/2 WK FOR 20 WK TO RATS MAINTAINED ON ETHINYL ESTRADIOL CONTAINING DIET (0.75 PPM) FOR 1 WK CYCLED WITH ETHINY, Promoter: ETHINYL ESTRADIOL, 57-63-6): 4/10 (40%), 5/13 (38%), 5%, not significant | tumour outcome (control, treated, inhibition, significance) (Carcinogen: 3,2'-DIMETHYL-4-AMINOBIPHENYL, 13394-86-0, 2% IN BASAL DIET BEGINNING POST CARCINOGEN TREATMENT AND CONTINUING FOR 40 WK (STUDY DURATION: 60 WK), Target Tissue: Type of Lesion: PROSTATE: CARCINOMA, Dose [Carcinogen]: 50 MG/KG 1/2 WK FOR 20 WK TO RATS MAINTAINED ON ETHINYL ESTRADIOL CONTAINING DIET (0.75 PPM) FOR 1 WK CYCLED WITH ETHINY, Promoter: ETHINYL ESTRADIOL, 57-63-6): 5/10 (50%), 5/13 (38%), 24%, not significant
